Key:
O-acylisopeptide of Aβ = molecular target: T1, O-acylisopeptide of Aβ (Homo sapiens, UniProt P05067); assay: Aβ aggregation inhibition test (thioflavine T fluorescence); format: biochemical; details: final sample concentration 30 μM, Aβ O-acylisopeptide 10 μM, pH 7.4, 37° C., 1% DMSO; DMSO control defined as 100
T1 construct: containing O-acylisopeptide of Aβ (10 μM)
Experimental: A test sample solution (solution in DMSO) was added into a 0.1 M phosphate buffer solution (pH 7.4, 50 μL) containing O-acylisopeptide of Aβ (10 μM) (final sample concentration: 30 μM, 1% DMSO), and the mixture was incubated at 37° C. for an arbitrary time. Then, an aliquot (10 μL) of the reaction solution was added to a mixed solution of a thioflavine T solution (50 μM thioflavine T, 10 μL) and a 50 mM glycine-NaOH buffer (pH 8.5, 396 μL) and immediately mixed therewith, and the fluorescence intensity of thioflavine T was measured. In the fluorescence intensity measurement, 440 nm was used as an excitation wavelength, and 480 nm was used as a fluorescent wavelength.

Aβ = details: background statement on the known pentapeptide; cited from earlier work
Sequence of Aβ (P05067 672-711 limits assumed): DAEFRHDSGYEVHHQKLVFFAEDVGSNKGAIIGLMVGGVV

T1 sequence (P05067 672-713 limits assumed): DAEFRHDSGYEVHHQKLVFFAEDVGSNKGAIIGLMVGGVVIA

| Molecule | Aggregation inhibition ratio (lower value means stronger inhibitory activity) (O-acylisopeptide of Aβ) | Aβ aggregation inhibitory activity (Aβ) |
| --- | --- | --- |
| CC(C)CCNC(=O)c1cc(Cc2ccccc2)cc(Oc2ccccc2)n1 [Compound 1, 4-Benzyl-6-phenoxy-N-isoamylpicolinamide] | 61 |  |
| CC(C)CCNC(=O)c1cc(Cc2ccc3ccccc3c2)cc(Oc2ccccc2)n1 [Compound 2, 4-(Naphthalen-2-yl)methyl-6-phenoxy-N-isoamylpicolinamide] | 52 |  |
| CC(C)CCCNC(=O)c1cc(Cc2ccccc2)cc(Oc2ccccc2)n1 [Compound 3, 4-Benzyl-6-phenoxy-N-(4-methylpentyl)picolinamide] | 58 |  |
| CC(C)CCNC(=O)c1cc(Cc2ccccc2)cc(OC2CCCCC2)n1 [Compound 4, 4-Benzyl-6-cyclohexyloxy-N-isoamylpicolinamide] | 60 |  |
| CC(C)CCNC(=O)c1cc(Cc2ccccc2)cc(OCc2ccccc2)n1 [Compound 5, 6-Benzyloxy-4-benzyl-N-isoamylpicolinamide] | 75 |  |
| CC(C)CCOc1cc(Cc2ccccc2)cc(C(=O)NCCc2ccccc2)n1 [Compound 6, 4-Benzyl-6-(3-methylbutoxy)-N-phenylethylpicolinamide] | 60 |  |
| O=C(NC1C2CC3CC(C2)CC1C3)c1nc(Cc2ccccc2)cc(Oc2ccccc2)n1 (centres unmarked) [Compound 12, N-(Adamantan-2-yl)-4-benzyl-6-phenoxypyrimidine-2-carboxamide] | 40 |  |
| L-[Lys-Leu-Val-Phe-Phe] (KLVFF) [(known), used as control] |  | very weak |

From US9796677B2, “Amide compound and pharmaceutical comprising same” (JAPAN SCIENCE AND TECHNOLOGY AGENCY, priority 2013, dated 2017)
